# Measurements from ChEMBL document CHEMBL1145852, “Drug rings database with web interface. A tool for identifying alternative chemical rings in lead discovery programs” (J Med Chem, 2003).
# Molecular target: T1, Endothelin-1 receptor (Homo sapiens, UniProt P25101)
# T1 sequence (P25101 whole entry): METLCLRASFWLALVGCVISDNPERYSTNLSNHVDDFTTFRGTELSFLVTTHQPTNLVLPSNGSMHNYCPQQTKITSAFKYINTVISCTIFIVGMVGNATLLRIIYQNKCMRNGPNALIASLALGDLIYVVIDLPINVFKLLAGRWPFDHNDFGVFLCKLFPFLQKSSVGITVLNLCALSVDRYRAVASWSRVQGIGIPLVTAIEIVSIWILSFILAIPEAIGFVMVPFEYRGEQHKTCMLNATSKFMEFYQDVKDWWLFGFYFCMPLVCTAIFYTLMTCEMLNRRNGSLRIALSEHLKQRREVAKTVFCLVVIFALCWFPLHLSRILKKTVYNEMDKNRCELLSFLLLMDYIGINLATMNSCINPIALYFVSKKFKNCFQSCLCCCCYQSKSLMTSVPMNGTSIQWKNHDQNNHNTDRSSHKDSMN
# Experiment: Potency at Endothelin A receptor was determined
row,Compound,IC50 [nM]
1,CCCOc1ccc2c(c1)c(-c1ccc3c(c1)OCO3)c(C(=O)O)n2Cc1ccc2nsnc2c1,97
2,CCCOc1ccc2c(c1)c(-c1ccc3c(c1)OCO3)c(C(=O)O)n2Cc1ccc2c(c1)OCO2,250
3,COc1cc2c(-c3ccc4c(c3)OCO4)c(C(=O)O)n(Cc3ccc4c(c3)OCO4)c2cc1OC,150
4,CCCOc1ccc2c(c1)c(-c1ccc3c(c1)OCO3)c(C(=O)O)n2Cc1ccc2nonc2c1,2500
5,COc1cc2c(-c3ccc4c(c3)OCO4)c(C(=O)O)n(Cc3ccc4nsnc4c3)c2cc1OC,33
